27 compounds from patent publication US20250177383A1, “DI-CYCLOPROPYL BASED IL-17A MODULATORS AND USES THEREOF” (DICE ALPHA, INC., priority 2022, published 2025) can be followed below.

Molecules are shown by their SMILES.

The target in one experiment is T1, IL-17A/A (Homo sapiens, UniProt Q16552).
T1 sequence (Q16552 24-155): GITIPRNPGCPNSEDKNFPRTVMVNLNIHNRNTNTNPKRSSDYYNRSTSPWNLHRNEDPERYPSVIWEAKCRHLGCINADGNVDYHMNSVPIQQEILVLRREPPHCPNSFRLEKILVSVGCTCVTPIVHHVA
The experiment in a line: IL-17A/A HEK-Blue Cell Assay. To be noted: HEK-Blue IL-17 reporter cells, IL-17A/A stimulation, 20 hours, SEAP readout; read-out: IL17 AA HEK-5 pIC50 (converted). It is filed as cell-based. An outline of the steps: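 Cells co-expressing IL-17RA, IL-17RC and Act1 received titrated compound, top final 10 uM in 0.1% DMSO, immediately before IL-17A/A stimulation.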

The target of the next experiment is T2, IL-17A/F (Homo sapiens, UniProt Q16552+Q96PD4).
T2 sequence (Q16552 24-155): T1 sequence (Q16552 24-155)
T2 sequence (Q96PD4 31-163): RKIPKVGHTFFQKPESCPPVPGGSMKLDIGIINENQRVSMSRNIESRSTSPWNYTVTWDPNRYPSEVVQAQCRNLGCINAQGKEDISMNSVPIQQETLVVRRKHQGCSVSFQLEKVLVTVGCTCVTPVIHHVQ
The experiment in a line: IL-17A/F HEK-Blue Cell Assay. The class given is cell-based. The following applies: HEK-Blue IL-17 reporter cells, IL-17A/F stimulation, 20 hours, SEAP readout; read-out: IL17AF HEK Blue pIC50 (converted). The method, then: The HEK-Blue IL-17 reporter cell line (Fisher #NC1408637) was used for cell-based IL-17A/F inhibition assays. Cells were grown and prepared for assays according to the manufacturer's instructions. This cell line consists of HEK 293 cells that were designed to expressed IL-17RA, IL-17R^C, and the ActI adapter molecule, the combination of which, when stimulated by IL-17A/A activates a NFκB promoter and drives expression of a recombinant Secreted Alkaline Phosphatase (SEAP) geneprotein. Media from the cells is then added to a development reagent (Quanti-Blue Substrate, Fisher #NC9711613), and read at A630.
Compounds were titrated in DMSO and added to the cells immediately before adding IL-17A/A (Custom from R&D systems, untagged IL-17A/F+BSA as a carrier protein). The cells, compound, and IL-17A/A were then incubated for 20 hours before media was removed for SEAP analysis. The resulting inhibition curve was then analyzed using a Dotmatics screening protocol, and IC50 values were determined using a 4-parameter nonlinear fit. DMSO was added to a universal final concentration of 0.1% to optimize background.

With `C[C@@H]1CN(C(=O)[C@H](NC(=O)N(C)C2CC2)[C@@H](C)c2ccc(NC(=O)[C@@H](NC(=O)C3(F)CC3)C(C3CC3)C3CC3)c(F)c2)CCN1C` [Compound 271], the IC50 at IL-17A/A was under 10 nM; on IL-17A/F, 100 to 10000 nM.

Take `CO[C@@H](C)C(=O)N[C@@H](C(=O)N1CCN(C)[C@H](C)C1)[C@@H](C)c1ccc(NC(=O)[C@@H](NC(=O)C2(F)CC2)C(C2CC2)C2CC2)c(F)c1` [Compound 273]: the IC50 on IL-17A/A was under 10 nM; at IL-17A/F, 100 to 10000 nM.

Turning to `CCOC(=O)N1CC[C@H]1C(=O)N[C@@H](C(=O)N1CCN(C)[C@H](C)C1)[C@@H](C)c1ccc(NC(=O)[C@@H](NC(=O)C2(F)CC2)C(C2CC2)C2CC2)c(F)c1` [Compound 275], the IC50 at IL-17A/A is under 10 nM; at IL-17A/F it was 100 to 10000 nM.

For the compound `COC(=O)N1CC[C@H]1C(=O)N[C@@H](C(=O)N1CCN(C)CC1)[C@@H](C)c1ccc(NC(=O)[C@@H](NC(=O)C2(F)CC2)C(C2CC2)C2CC2)c(F)c1` [Compound 277], the IC50 at IL-17A/A is 10 to 100 nM; at IL-17A/F, 100 to 10000 nM.

As for `COC(=O)N1CC[C@H]1C(=O)N[C@@H](C(=O)N1CCN(C)[C@H](C)C1)[C@@H](C)c1ccc(NC(=O)[C@@H](NC(=O)C2(F)CC2)C(C2CC2)C2CC2)c(F)c1` [Compound 278], the figures for the IC50 at IL-17A/A and on IL-17A/F were under 10 nM and 100 to 10000 nM, respectively.

Turning to `CCOC(=O)N1CCC[C@H]1C(=O)N[C@@H](C(=O)N1CCN(C)[C@H](C)C1)[C@@H](C)c1ccc(NC(=O)[C@@H](NC(=O)C2(F)CC2)C(C2CC2)C2CC2)c(F)c1` [Compound 279], the IC50 at IL-17A/A is under 10 nM; on IL-17A/F, 100 to 10000 nM.

In the case of `COC(=O)N1CCC[C@H]1C(=O)N[C@@H](C(=O)N1CCN(C)CC1)[C@@H](C)c1ccc(NC(=O)[C@@H](NC(=O)C2(F)CC2)C(C2CC2)C2CC2)c(F)c1` [Compound 280], the IC50 at IL-17A/A is 10 to 100 nM; at IL-17A/F it was 100 to 10000 nM.

Consider `COC(=O)N1CCC[C@H]1C(=O)N[C@@H](C(=O)N1CCN(C)[C@H](C)C1)[C@@H](C)c1ccc(NC(=O)[C@@H](NC(=O)C2(F)CC2)C(C2CC2)C2CC2)c(F)c1` [Compound 281], for which the IC50 at IL-17A/A is under 10 nM; at IL-17A/F, 100 to 10000 nM.

With `CCOC(=O)N[C@@H](C)C(=O)N[C@@H](C(=O)N1CCN(C)[C@H](C)C1)[C@@H](C)c1ccc(NC(=O)[C@@H](NC(=O)C2(F)CC2)C(C2CC2)C2CC2)c(F)c1` [Compound 282], the results for the IC50 on IL-17A/A and at IL-17A/F were under 10 nM and 10 to 100 nM, respectively.

For the compound `CCn1nccc1C(=O)N[C@H](C(=O)Nc1ccc([C@H](C)[C@@H](NC(=O)COC)C(=O)N2CCN(C)C[C@@H]2C)cc1F)C(C1CC1)C1CC1` [Compound 283], the IC50 on IL-17A/A is under 10 nM; on IL-17A/F, 10 to 100 nM.

On to `CCn1nccc1C(=O)N[C@H](C(=O)Nc1ccc([C@H](C)[C@@H](NC(=O)[C@H](C)OC)C(=O)N2CCN(C)C[C@@H]2C)cc1F)C(C1CC1)C1CC1` [Compound 284], for which the IC50 on IL-17A/A was under 10 nM; at IL-17A/F it was 10 to 100 nM.

`CO[C@@H](C)C(=O)N[C@@H](C(=O)N1CCN(C)C[C@@H]1C)[C@@H](C)c1ccc(NC(=O)[C@@H](NC(=O)C2(F)CC2)C(C2CC2)C2CC2)c(F)c1` [Compound 285]: the results for the IC50 at IL-17A/A and on IL-17A/F were 10 to 100 nM and 100 to 10000 nM, respectively.

Take `CCn1nccc1C(=O)N[C@H](C(=O)Nc1ccc([C@H](C)[C@@H](NC(=O)COC)C(=O)N2C[C@@H](C)N(C)C[C@H]2C)cc1F)C(C1CC1)C1CC1` [Compound 286]: the values for the IC50 on IL-17A/A and at IL-17A/F were under 10 nM and 10 to 100 nM, respectively.

Regarding `CCn1nccc1C(=O)N[C@H](C(=O)Nc1ccc([C@H](C)[C@@H](NC(=O)[C@H](C)OC)C(=O)N2C[C@@H](C)N(C)C[C@H]2C)cc1F)C(C1CC1)C1CC1` [Compound 287], the IC50 at IL-17A/A and at IL-17A/F was under 10 nM throughout.

For the compound `CCC(=O)N[C@@H](C(=O)N1C[C@@H](C)N(C)C[C@H]1C)[C@@H](C)c1ccc(NC(=O)[C@@H](NC(=O)C2(F)CC2)C(C2CC2)C2CC2)c(F)c1` [Compound 288], the IC50 at IL-17A/A is under 10 nM; at IL-17A/F it was 100 to 10000 nM.

For `COCC(=O)N[C@@H](C(=O)N1C[C@@H](C)N(C)C[C@H]1C)[C@@H](C)c1ccc(NC(=O)[C@@H](NC(=O)C2(F)CC2)C(C2CC2)C2CC2)c(F)c1` [Compound 289], the IC50 at IL-17A/A is under 10 nM; on IL-17A/F, 100 to 10000 nM.

`CO[C@@H](C)C(=O)N[C@@H](C(=O)N1C[C@@H](C)N(C)C[C@H]1C)[C@@H](C)c1ccc(NC(=O)[C@@H](NC(=O)C2(F)CC2)C(C2CC2)C2CC2)c(F)c1` [Compound 290]: the IC50 on IL-17A/A is under 10 nM; at IL-17A/F it was 100 to 10000 nM.

Turning to `CCn1nccc1C(=O)N[C@H](C(=O)Nc1ccc([C@H](C)[C@@H](NC(=O)N(C)C2CC2)C(=O)N2CCN(C)[C@H](C)C2)cc1F)C(C1CC1)C1CC1` [Compound 291], the IC50 on IL-17A/A and at IL-17A/F was under 10 nM throughout.

In the case of `CCn1nccc1C(=O)N[C@H](C(=O)Nc1ccc([C@H](C)[C@@H](NC(=O)C(C)(F)F)C(=O)N2CCN(C)[C@H](C)C2)cc1F)C(C1CC1)C1CC1` [Compound 292], the IC50 at IL-17A/A was under 10 nM; at IL-17A/F it was 10 to 100 nM.

On to `CCn1nccc1C(=O)N[C@H](C(=O)Nc1ccc([C@H](C)[C@@H](NC(=O)COC)C(=O)N2C[C@@H](C)N(C)[C@@H](C)C2)cc1F)C(C1CC1)C1CC1` [Compound 293], for which the IC50 was under 10 nM at IL-17A/A and 10 to 100 nM on IL-17A/F.

With `CO[C@@H](C)C(=O)N[C@@H](C(=O)N1C[C@H]2CC[C@@H](C1)N2C)[C@@H](C)c1ccc(NC(=O)[C@@H](NC(=O)C2(F)CC2)C(C2CC2)C2CC2)c(F)c1` [Compound 294], the results for the IC50 at IL-17A/A and at IL-17A/F were 10 to 100 nM and 100 to 10000 nM, respectively.

Take `C[C@@H](c1ccc(NC(=O)[C@@H](NC(=O)C2(F)CC2)C(C2CC2)C2CC2)c(F)c1)[C@@H](NC(=O)N(C)C1CC1)C(=O)N1C[C@H]2CC[C@@H](C1)N2C` [Compound 295]: the IC50 at IL-17A/A is under 10 nM; on IL-17A/F, 100 to 10000 nM.

Take `CCn1nccc1C(=O)N[C@H](C(=O)Nc1ccc([C@H](C)[C@@H](NC(=O)[C@H](C)N(C)C2=NCCO2)C(=O)N2CCN(C)[C@H](C)C2)cc1F)C(C1CC1)C1CC1` [Compound 296]: the IC50 on IL-17A/A is under 10 nM; at IL-17A/F it was 10 to 100 nM.

As for `CCC(=O)N[C@@H](C(=O)N1CCN(C)[C@H](C)C1)[C@@H](C)c1ccc(NC(=O)[C@@H](NC(=O)c2ccnn2C)C(C2CC2)C2CC2)c(F)c1` [Compound 297], the figures for the IC50 at IL-17A/A and on IL-17A/F were under 10 nM and 10 to 100 nM, respectively.

For `CCn1nccc1C(=O)N[C@H](C(=O)Nc1ccc([C@H](C)[C@@H](NC(=O)[C@H](C)N(C)c2ncncn2)C(=O)N2CCN(C)[C@H](C)C2)cc1F)C(C1CC1)C1CC1` [Compound 305], the IC50 at IL-17A/A and on IL-17A/F was under 10 nM in each case.

As to `CCn1nccc1C(=O)N[C@H](C(=O)Nc1ccc([C@H](C)[C@@H](NC(=O)[C@H](C)Nc2ncccn2)C(=O)N2CCN(C)[C@H](C)C2)cc1F)C(C1CC1)C1CC1` [Compound 306], the IC50 on IL-17A/A and on IL-17A/F was under 10 nM each time.

Consider `CCn1nccc1C(=O)N[C@H](C(=O)Nc1ccc([C@H](C)[C@@H](NC(=O)[C@H](C)OC)C(=O)N2C[C@H]3C[C@@H](C2)N3C)cc1F)C(C1CC1)C1CC1` [Compound 307], for which the IC50 on IL-17A/A is 10 to 100 nM; at IL-17A/F, 100 to 10000 nM.
